Consider one molecule from ChEMBL document CHEMBL4000228, “Synthesis of bioactive and fluorescent pyridine-triazole-coumarin peptidomimetics through sequential click-multicomponent reactions” (Bioorg Med Chem Lett, 2017).

The test system of test [1] is MCF7. In words: Induction of morphological changes in human MCF7 cells at 40 uM after 48 hrs by DAPI staining based fluorescence microscopic method. The test is classed as functional, cell-based.
For test [2], the system named is MCF7. In words: Induction of morphological changes in human MCF7 cells at 40 uM after 48 hrs by DAPI staining based inverted light microscopic method. The test is classed as functional, cell-based.

SMILES strings stand for the structures. Active and inactive are the calls of the source. The rule behind the calls is not given here.

In the case of `COc1ccc(C(CC(=O)c2cc3ccccc3oc2=O)NC(=O)CCn2cc(COc3ccc(-c4c(C#N)c(N)nc(Sc5ccccc5)c4C#N)cc3OC)nn2)cc1` (configuration not stated), the result with MCF7 [1] and with MCF7 [2] was Active.
